# Data reported in patent US6753424B1, “Conjugates of DNA interacting groups with steroid hormones for use as nucleic acid transfection agents” (priority 1998, dated 2004).
# Legend:
# 3Y1 cells = experiment: Transfection enhancement, CMV-LacZ reporter, CaPO4 transfection of 3Y1 cells; type: cell-based, rat; settings: 5 μg reporter, 3Y1
# Method: Conditions: 3Y1 cells are transfected with an expression vector that is constitutively expressing the reporter gene LacZ (CMV-LacZ). Transfection conditions are identical throughout the various samples (total 10-12 μq DNA for 4 cm dishes). In some samples the DNA used for the transfection cocktail is pre-incubated with various conjugates at the given concentrations. The concentrations are calculated to give from 10−8 to 10−6 M after dispersing the CaPO4 precipitate in the recipient dish (5 ml volume). Transfection is performed O/N and after rinsing of the precipitate the cells are further incubated for 24 hours. LacZ levels are determined from cell extracts with a chemiluminescence LacZ enzyme assay (Galactolight plus. Tropix). The relative luminescence from each extract is given in RLU/mg*1000.
# Cell culture. Cells are cultivated in DMEM supplemented with serum and antibiotica according to standard conditions (typically 10% FCS and Pen/Strep as antibiotica). At the day of transfection, cells are trypsinized and seeded at around 25-30% confluency. Cells are allowed to adhere to dish for 4-6 hours prior to transfection.
# DNA pre-incubation (example for conditions that give5×10 exp (−6) Molar final concentration of the CL-C4-EtBr conjugate):
# 5 microgram of CMV-LacZ DNA (in 10 microliter TE) are mixed with 10 nmoles of hormone derivative (10 microliters stock solution) and incubated for 10 min at room temperature (final volume: 20 ul). The DNA/cortisol-C4-ethidum mix is then supplemented with 7 micrograms sheared calf thymus carrier DNA (in 14 microliters TE) and bidistilled water to give a final volume of 125 microliters.
# Transfection by CaPO4: to each transfection sample (125 microliter volume DNA+water). 125 microliters of Ca ++ mix are added, and the mix is incubated for 5-10 min at room temperature. Each sample is then supplemented with 250 microliter of Pi-mix (with simultaneous mixing by up-down pipetting) and is further incubated 10 minutes at room temperature after which the cocktail is poured on top of the medium (5 ml) of each cell culture dish (4 cm diameter). The optimal time of incubation after Pi-mix addition is pre-determined by prior evaluation (size of the precipitate) of parallel samples. The precipitate is allowed to deposit onto the cells for 15 hours (incubation of 37 degrees, 5% CO2). The cells are then rinsed twice with Tris-buffered Saline, supplemented with fresh medium and further incubated under standard conditions. To analyze LacZ reporter gene function, the cells are either fixed or harvested 24 hours after precipitate removal.
# Variation of parameters: samples in which the C1-C4-EtBr conjugates (or control compounds) are used at different concentrations, are similarly treated, except that the concentration of the stock solution in ethanol is correspondingly varied.
# [1] = system: CV-1 cells reconstituted with exogenous GR; experiment: Transfection enhancement, CMV-LacZ reporter, CV-1 cells reconstituted with exogenous GR; type: cell-based, monkey
# Method: Conditions: CV-1 cells are first infected with an adenovirus system allowing expression of GR in >90% of the cells (S. B. Verca, unpublished). After 24 hours the cells are; transfected with an expression vector that is constitutively expressing the reporter gene LacZ (CMV-LacZ). Transfection conditions and analysis of LacZ reporter are the same as described in Example 7 legend. Transfection is performed O/N and after rinsing of the precipitate the cells are further incubated for 24 hours. LacZ levels are determined from cell extracts with a chemiluminescence LacZ enzyme assay (Galactolight plus, Tropix). The relative luminescence from each extract is given. Each value represents an individual extract. “Induction”: relative reporter gene activity (values divided by value of assay in lane 9, true negative control for liganding), rel/RLU=(RLU:protein)×1000, net=rel/RLU−600 (600=rel/RLU value approximately corresponding to rel/RLU value of mock transfection).
# HUH-7 cells = experiment: Transfection enhancement, CMV-LacZ reporter, HUH-7 cells; type: cell-based, human; set-up: key to net: net = (RLU:protein)×1000 − 600 (mock transfection level)
# Method: Conditions: HUH-7 cells are human hepatoma cells that contain substantial amounts of glucocorticoid receptor. The cells are transfected with an expression vector that is constitutively expressing the reporter gene LacZ (CMV-LacZ). Transfection conditions and analysis of LacZ reporter are the same as described in Example 7 legend. Transfection is performed O/N and after rinsing of the precipitate the cells are further incubated for 24 hours. LacZ levels are determined from cell extracts with a chemiluminescence LacZ enzyme assay (Galactolight plus, Tropix). The relative luminescence from each extract is given. Each value represents an individual extract. “Induction”: relative reporter gene activity (values divided by value of assay in lane 9, true negative control for DNA liganding). rel/RLU=(RLU:protein)×1000; net=rel/RLU−600 (600=rel/RLU value approximately corresponding to rel/RLU value of mock transfection).
# [2] = Stability of C-21 ester versus C-21 urethane derivatives (TLC analysis); type: in vitro ADME; settings: pH 5, pH 9, proteinase K (pH 7.8, 50 μg/ml), dispase (2.4 U/ml), cellular extracts, DMEM/10% FCS
# Method: b) water buffered to pH 9;
# c) water buffered to pH 5;
# e) proteinase K (pH 7.8; 50 μg/ml);
# After 15 hours of incubation each sample is separately extracted with 400 μl Ethyl acetate, evaporated under N2-flow, redissolved in 20 μl Ethyl acetate and analysed by TLC analysis: stationary phase: Alugram SIL G-25 UV254 (Macherey Nagel AG); mobile phase: Ethyl acetate-MeOH-Acetone (3-1-3).
# GR-GFP chimera [3] = experiment: Nuclear Transfer Induction assay (NTI), monourethane ligands, HeLa cells; type: cell-based; settings: 1 hr
# Method: Conditions: HeLa cells are transiently transfected by CaPO4 with an expression vector encoding a GR-GFP chimera (5 μg in transfection cocktail, 4 cm diameter dishes, DMEM with 3% FCS). After 24 hour expression, ligand is added for 1 hr and cells are fixed with formaldehyde (5 min 4° C.) and inspected by fluorescence microscopy. Fluorescent cells are counted and divided into different classes according to ‘cytoplasmic’ (C) versus ‘nuclear’ (N) localisation of fluorescence.
# First column: “Conditions”: Name of compounds added (marked at top: ‘//ligand’), and their concentration (in parentheses) and assay number (01 through 21).
# Values are given as percentage of cells displaying the corresponding localisatidn, within each tested condition the sum is 100%.
# GR-GFP chimera [4] = experiment: Nuclear Transfer Induction assay (NTI), diurethane ligands, CV-1 cells; type: cell-based; settings: 4 hr
# Method: Conditions: CV-1 cells are transiently transfected with DOTAP (Boehringer-Mannheim) with an expression vector encoding a GR-GFP chimera (see 8.1). After 36 hours expression, ligand is added for 4 hr and cells are fixed and counted as given in 8.1.
smiles,measurement,setting,value
"CC[n+]1c(-c2ccccc2)c2cc(N)ccc2c2ccc(N)cc21 [EtBr, Ethidium Bromide, reference compound]","light units (relative luminescence, LacZ)",3Y1 cells; ligand 10^-6M,2250 RLU/mg*1000
same,"light units (relative luminescence, LacZ)",3Y1 cells; ligand 10^-7M,2500 RLU/mg*1000
same,"light units (relative luminescence, LacZ)",3Y1 cells; ligand 10^-8M,2750 RLU/mg*1000
same,RLU,"[1]; ligand 10-6, CV-1 with GR",851
same,"induction (relative reporter gene activity, divided by value of lane 9)","[1]; ligand 10-6, CV-1 with GR",0.77
same,net = rel/RLU−600,"[1]; ligand 10-6, CV-1 with GR",626.2
same,rel/RLU = (RLU:protein)×1000,"[1]; ligand 10-6, CV-1 with GR",1226.2
same,RLU,"[1]; ligand 10-7, CV-1 with GR",1632
same,"induction (relative reporter gene activity, divided by value of lane 9)","[1]; ligand 10-7, CV-1 with GR",2.01
same,net = rel/RLU−600,"[1]; ligand 10-7, CV-1 with GR",1626
same,rel/RLU = (RLU:protein)×1000,"[1]; ligand 10-7, CV-1 with GR",2226.5
same,RLU,"HUH-7 cells; ligand 10-6, HUH-7",168920
same,"induction (relative reporter gene activity, divided by value of lane 9)","HUH-7 cells; ligand 10-6, HUH-7",1.49
same,net,"HUH-7 cells; ligand 10-6, HUH-7",103
same,rel/RLU,"HUH-7 cells; ligand 10-6, HUH-7",233.3
Cc1oc2c(C)c3oc(=O)cc(C)c3cc2c1CNC(=O)OCCOCCNC(=O)OCCOCCNC(=O)OCC(=O)[C@@]1(O)[C@H](C)CC2C3CCC4=CC(=O)C=CC4(C)[C@@]3(F)C(O)CC21C (stereo partly shown) [DEX-O-O-PSO],"stability of urethane bond between steroid moiety, spacer and DNA binder",[2],stable
Cc1oc2c(C)c3oc(=O)cc(C)c3cc2c1CNC(=O)CCNC(=O)OCC(=O)[C@@]1(O)[C@H](C)CC2C3CCC4=CC(=O)C=CC4(C)[C@@]3(F)C(O)CC21C (stereo partly shown) [DEX-C4-Pso],"stability of urethane bond between steroid moiety, spacer and DNA binder",[2],stable
same,"C < N, percentage of cells",GR-GFP chimera [3]; ligand 1.10-6M,15%
same,"C << N, percentage of cells",GR-GFP chimera [3]; ligand 1.10-6M,5%
same,"C = N, percentage of cells",GR-GFP chimera [3]; ligand 1.10-6M,60%
same,"C > N, percentage of cells",GR-GFP chimera [3]; ligand 1.10-6M,20%
same,"C >> N, percentage of cells",GR-GFP chimera [3]; ligand 1.10-6M,0%
same,"C < N, percentage of cells",GR-GFP chimera [3]; ligand 1.10-7M,5%
same,"C << N, percentage of cells",GR-GFP chimera [3]; ligand 1.10-7M,0%
same,"C = N, percentage of cells",GR-GFP chimera [3]; ligand 1.10-7M,40%
same,"C > N, percentage of cells",GR-GFP chimera [3]; ligand 1.10-7M,35%
same,"C >> N, percentage of cells",GR-GFP chimera [3]; ligand 1.10-7M,20%
"C[C@@H]1C[C@H]2[C@@H]3CCC4=CC(=O)C=C[C@]4(C)[C@@]3(F)[C@@H](O)C[C@]2(C)[C@@]1(O)C(=O)CO [DEX, Dexamethasone, reference compound]","C < N, percentage of cells",GR-GFP chimera [3]; ligand 1.10-6M,29%
same,"C << N, percentage of cells",GR-GFP chimera [3]; ligand 1.10-6M,71%
same,"C = N, percentage of cells",GR-GFP chimera [3]; ligand 1.10-6M,0%
same,"C > N, percentage of cells",GR-GFP chimera [3]; ligand 1.10-6M,0%
same,"C >> N, percentage of cells",GR-GFP chimera [3]; ligand 1.10-6M,0%
same,"C < N, percentage of cells",GR-GFP chimera [3]; ligand 1.10-7M,30%
same,"C << N, percentage of cells",GR-GFP chimera [3]; ligand 1.10-7M,67%
same,"C = N, percentage of cells",GR-GFP chimera [3]; ligand 1.10-7M,3%
same,"C > N, percentage of cells",GR-GFP chimera [3]; ligand 1.10-7M,0%
same,"C >> N, percentage of cells",GR-GFP chimera [3]; ligand 1.10-7M,0%
same,"C < N, percentage of cells",GR-GFP chimera [4]; ligand 5.10-6M,0.5%
same,"C << N, percentage of cells",GR-GFP chimera [4]; ligand 5.10-6M,99.5%
same,"C = N, percentage of cells",GR-GFP chimera [4]; ligand 5.10-6M,0%
same,"C > N, percentage of cells",GR-GFP chimera [4]; ligand 5.10-6M,0%
same,"C >> N, percentage of cells",GR-GFP chimera [4]; ligand 5.10-6M,0%
same,"C < N, percentage of cells",GR-GFP chimera [4]; ligand 5.10-7M,1%
same,"C << N, percentage of cells",GR-GFP chimera [4]; ligand 5.10-7M,99%
same,"C = N, percentage of cells",GR-GFP chimera [4]; ligand 5.10-7M,0%
same,"C > N, percentage of cells",GR-GFP chimera [4]; ligand 5.10-7M,0%
same,"C >> N, percentage of cells",GR-GFP chimera [4]; ligand 5.10-7M,0%
same,"C < N, percentage of cells",GR-GFP chimera [4]; ligand 5.10-8M,5%
same,"C << N, percentage of cells",GR-GFP chimera [4]; ligand 5.10-8M,95%
same,"C = N, percentage of cells",GR-GFP chimera [4]; ligand 5.10-8M,0%
same,"C > N, percentage of cells",GR-GFP chimera [4]; ligand 5.10-8M,0%
same,"C >> N, percentage of cells",GR-GFP chimera [4]; ligand 5.10-8M,0%
same,"C < N, percentage of cells",GR-GFP chimera [4]; ligand 5.10-9M,42.1%
same,"C << N, percentage of cells",GR-GFP chimera [4]; ligand 5.10-9M,57.5%
same,"C = N, percentage of cells",GR-GFP chimera [4]; ligand 5.10-9M,0.3%
same,"C > N, percentage of cells",GR-GFP chimera [4]; ligand 5.10-9M,0%
same,"C >> N, percentage of cells",GR-GFP chimera [4]; ligand 5.10-9M,0%
same,RLU,"HUH-7 cells; ligand 10-6, HUH-7",238837
same,net,"HUH-7 cells; ligand 10-6, HUH-7",185
same,rel/RLU,"HUH-7 cells; ligand 10-6, HUH-7",314.7
same,net,"HUH-7 cells; ligand 10-7, HUH-7",227
same,rel/RLU,"HUH-7 cells; ligand 10-7, HUH-7",357.3
Cc1oc2c(C)c3oc(=O)cc(C)c3cc2c1CNC(=O)CCCCCCCCCCNC(=O)OCC(=O)[C@@]1(O)CCC2C3CCC4=CC(=O)CCC4(C)C3C(O)CC21C (stereo partly shown) [CL-C12-Pso],"stability of urethane bond between steroid moiety, spacer and DNA binder",[2],stable
same,"C < N, percentage of cells",GR-GFP chimera [3]; ligand 1.10-6M,53%
same,"C << N, percentage of cells",GR-GFP chimera [3]; ligand 1.10-6M,22%
same,"C = N, percentage of cells",GR-GFP chimera [3]; ligand 1.10-6M,25%
same,"C > N, percentage of cells",GR-GFP chimera [3]; ligand 1.10-6M,0%
same,"C >> N, percentage of cells",GR-GFP chimera [3]; ligand 1.10-6M,0%
same,"C < N, percentage of cells",GR-GFP chimera [3]; ligand 1.10-7M,3%
same,"C << N, percentage of cells",GR-GFP chimera [3]; ligand 1.10-7M,0%
same,"C = N, percentage of cells",GR-GFP chimera [3]; ligand 1.10-7M,52%
same,"C > N, percentage of cells",GR-GFP chimera [3]; ligand 1.10-7M,40%
same,"C >> N, percentage of cells",GR-GFP chimera [3]; ligand 1.10-7M,5%
COC(=O)CCNC(=O)OCC(=O)[C@@]1(O)CCC2C3CCC4=CC(=O)CCC4(C)C3C(O)CC21C (stereo partly shown) [CL-C4],"light units (relative luminescence, LacZ)",3Y1 cells; ligand 10^-6M,3750 RLU/mg*1000
same,"light units (relative luminescence, LacZ)",3Y1 cells; ligand 10^-7M,1625 RLU/mg*1000
same,"light units (relative luminescence, LacZ)",3Y1 cells; ligand 10^-8M,2500 RLU/mg*1000
